Reference: publication PMC7614683, “A small molecule PI3Kα activator for cardioprotection and neuroregeneration” (Nature, 2023)
Where two headings read alike, the source gives them in different places.

Assays:
Test in all cases: SelectScreen Z-LYTE kinase activity assay (SI Table 6)
Assay type in all cases: biochemical
[1] = target: protein kinases of the Z-LYTE panel (Homo sapiens, UniProt P23443)
Summary of the method: (§1)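 Kinases in the SelectScreen panel (Adapta, LanthaScreen binding, Z-LYTE formats) were tested against compound at 1 μM. Separately, ATM (100 nM, 5 μM GST-p53, 1 mM ATP, 30 min, 30°C) and mTORC1 (50 nM, 15 μM 4E-BP1, 250 μM ATP, 3 h) were run with 200 μM compound. Those products were read on Phos-tag gels.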

[2] = target: T1, protein kinases of the Z-LYTE panel (Homo sapiens, UniProt P51813)
T1 sequence (P51813 1-675): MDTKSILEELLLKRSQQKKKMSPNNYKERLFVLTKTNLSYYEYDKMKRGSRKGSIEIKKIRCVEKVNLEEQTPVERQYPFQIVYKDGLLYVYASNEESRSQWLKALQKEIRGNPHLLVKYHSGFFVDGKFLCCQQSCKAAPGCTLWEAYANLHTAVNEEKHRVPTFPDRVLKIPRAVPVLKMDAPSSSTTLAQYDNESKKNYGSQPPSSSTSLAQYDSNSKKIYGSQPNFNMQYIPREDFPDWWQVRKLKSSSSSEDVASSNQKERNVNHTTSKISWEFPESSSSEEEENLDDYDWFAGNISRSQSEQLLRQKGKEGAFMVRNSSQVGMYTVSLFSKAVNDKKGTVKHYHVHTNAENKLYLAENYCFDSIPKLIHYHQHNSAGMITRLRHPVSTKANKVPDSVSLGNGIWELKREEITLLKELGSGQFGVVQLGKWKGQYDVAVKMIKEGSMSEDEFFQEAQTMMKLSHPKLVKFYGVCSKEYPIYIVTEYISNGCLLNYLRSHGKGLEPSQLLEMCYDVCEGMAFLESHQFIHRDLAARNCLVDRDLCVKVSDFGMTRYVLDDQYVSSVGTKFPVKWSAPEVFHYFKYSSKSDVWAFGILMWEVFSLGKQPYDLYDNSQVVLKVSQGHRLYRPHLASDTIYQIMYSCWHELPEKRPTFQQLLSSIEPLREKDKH
Summary of the method: as §1

[3] = target: T2, protein kinases of the Z-LYTE panel (Homo sapiens, UniProt Q8IW41)
T2 sequence (Q8IW41 1-473): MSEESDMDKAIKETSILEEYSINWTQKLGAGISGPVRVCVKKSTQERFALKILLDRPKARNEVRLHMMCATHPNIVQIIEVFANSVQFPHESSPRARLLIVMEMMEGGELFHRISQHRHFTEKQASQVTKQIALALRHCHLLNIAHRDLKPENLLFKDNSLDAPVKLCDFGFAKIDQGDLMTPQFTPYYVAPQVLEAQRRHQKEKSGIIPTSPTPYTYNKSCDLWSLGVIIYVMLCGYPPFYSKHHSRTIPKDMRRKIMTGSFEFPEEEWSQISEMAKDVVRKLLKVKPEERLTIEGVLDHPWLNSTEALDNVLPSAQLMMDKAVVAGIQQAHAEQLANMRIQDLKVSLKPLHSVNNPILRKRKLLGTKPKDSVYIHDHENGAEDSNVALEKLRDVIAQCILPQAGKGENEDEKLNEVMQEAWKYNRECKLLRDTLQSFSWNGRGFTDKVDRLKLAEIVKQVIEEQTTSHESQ
Summary of the method: as §1

[4] = target: protein kinases of the Z-LYTE panel (Homo sapiens, UniProt Q9P1W9)
Summary of the method: as §1

Chain of protein kinases of the Z-LYTE panel (Homo sapiens, UniProt Q9P1W9) (Q9P1W9 whole entry): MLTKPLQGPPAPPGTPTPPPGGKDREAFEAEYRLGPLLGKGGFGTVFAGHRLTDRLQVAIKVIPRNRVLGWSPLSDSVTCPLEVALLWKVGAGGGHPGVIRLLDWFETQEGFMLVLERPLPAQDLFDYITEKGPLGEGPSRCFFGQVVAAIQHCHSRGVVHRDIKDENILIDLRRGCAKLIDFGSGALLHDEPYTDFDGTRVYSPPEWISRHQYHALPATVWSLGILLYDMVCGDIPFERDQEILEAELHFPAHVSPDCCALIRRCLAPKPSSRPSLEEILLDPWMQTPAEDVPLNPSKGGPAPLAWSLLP
Chain of protein kinases of the Z-LYTE panel (Homo sapiens, UniProt P23443) (P23443 whole entry): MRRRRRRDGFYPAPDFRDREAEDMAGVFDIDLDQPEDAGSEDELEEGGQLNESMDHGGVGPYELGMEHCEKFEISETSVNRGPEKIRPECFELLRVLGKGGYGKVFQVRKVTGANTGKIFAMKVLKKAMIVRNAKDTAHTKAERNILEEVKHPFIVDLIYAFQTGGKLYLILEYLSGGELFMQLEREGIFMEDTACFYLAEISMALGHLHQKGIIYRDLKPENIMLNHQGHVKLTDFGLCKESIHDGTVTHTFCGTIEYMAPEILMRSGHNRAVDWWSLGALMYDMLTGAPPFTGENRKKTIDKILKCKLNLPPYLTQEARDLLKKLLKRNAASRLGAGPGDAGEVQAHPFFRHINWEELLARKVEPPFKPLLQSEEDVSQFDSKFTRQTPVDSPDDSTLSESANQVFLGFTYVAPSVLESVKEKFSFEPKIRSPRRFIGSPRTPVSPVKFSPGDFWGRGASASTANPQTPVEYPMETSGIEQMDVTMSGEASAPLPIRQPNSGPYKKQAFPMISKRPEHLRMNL

Q: With `CCN1CCN(c2ccc(Nc3cc(Nc4cccc5c4N(C(C)=O)CC5)ccn3)cc2)CC1` [Compound 1938] as the compound, how does the inhibition at 1 µM ([1]; read-out: % Inhibition Point 1) read?
A: 2.67%

Q: And the inhibition at 1 µM ([1]; read-out: % Inhibition Point 2)?
A: -0.609%

Q: What about the inhibition at 1 µM ([1]; read-out: % Inhibition mean) of the same compound?
A: 1%

Q: And the inhibition at 1 µM ([2]; read-out: % Inhibition Point 1)?
A: 19%

Q: And the inhibition at 1 µM ([2]; read-out: % Inhibition Point 2)?
A: 25%

Q: What about the inhibition at 1 µM ([2]; read-out: % Inhibition mean) of the same compound?
A: 22%

Q: And the inhibition at 1 µM ([3]; read-out: % Inhibition Point 1)?
A: 2.18%

Q: And the inhibition at 1 µM ([3]; read-out: % Inhibition Point 2)?
A: 2.77%

Q: And the inhibition at 1 µM ([3]; read-out: % Inhibition mean)?
A: 2.48%

Q: What about the inhibition at 1 µM ([4]; read-out: % Inhibition Point 1) of the same compound?
A: 2%

Q: What about the inhibition at 1 µM ([4]; read-out: % Inhibition Point 2) of the same compound?
A: 0.0719%

Q: What about the inhibition at 1 µM ([4]; read-out: % Inhibition mean) of the same compound?
A: 1%
